Measured values as given in patent publication US20240016831A1 (priority 2020, published 2024).

Columns and labels:
[1] = system: SARS-CoV-2 clinical isolate; format: cell-based
[2] = system: Vero E6 cells
[3] = format: physicochemical

CCN(CC)CCCC(C)Nc1ccnc2cc(Cl)ccc12 (stereo not drawn) [chloroquine, Chloroquine Phosphate, reference compound]
SARS-CoV-2 virus titre [1]: limit of detection (LOD)

O=C(O)CC(O)(CC(=O)O)C(=O)O [citric acid pH 5.8, citric acid]
in vitro antiviral action against SARS-CoV-2 [1]: high in vitro antiviral action | cytotoxicity on the LDH assay [2]: low cytotoxicity

OC[C@@H](O)[C@@H](O)[C@H](O)[C@H](O)CO [mannitol, D-mannitol]
cumulative levels of NO ([3]; pH 5.8): 1400 nmol NO per mg nitrite | difference in cumulative NO with and without mannitol ([3]; pH 6.2): differences have disappeared

OC[C@@H](O)[C@H](O)[C@@H](O)CO [xylitol]
cumulative nitric oxide evolution ([3]; after 3000 s): about 20000 nmol per mg nitrite
